One experiment has as its system filaggrin. The experiment in a line: Expression level of filaggrin in keratinocytes, real-time PCR. The note with it: 24 hours, versus untreated control, FIG. 5. The format is cell-based. How it is done: In order to measure the effect of promoting the expression of moisturizing factors of each of Examples and Comparative Example of the present invention, the expression levels of filaggrin and loricrin were measured.
Specifically, keratinocytes purchased from Invitrogen Corporation were cultured in EpiLife (keratinocyte growth medium) containing a supplement (human keratinocyte growth supplement (HKGS)) for a predetermined time, and then, the cells were subcultured three times and then used. The keratinocytes which were subcultured three times were cultured to a confluence of 70 to 80% in a 6-well plate, each of the wells was separately treated with each of the samples, and then, the keratinocytes were cultured for a total of 24 hours. RNA of the keratinocytes was extracted from the cultured cells using easy BLUE, and then, cDNA synthesis was performed using SuperScript reverse transcriptase III kit. Real-time PCR for comparing the genes was performed using 2× TaqMan universal PCR mixture (10 μl), 20× TaqMan expression assay mix (1 μl), cDNA (50 ng), and a primer (Filaggrin: Hs00856927_g1*, Loricrin: Hs01894962_s1*) and a 7500 Fast Real-Time PCR system. In addition, a sample treated with 10 μM IGF-1 was used as a positive control group, and a control that was not treated with the sample was used as a comparison group.
(Real-time PCR tracks product formation cycle by cycle.)

Another experiment relates to desmoglein1 (DSG1) gene. The experiment in a line: Expression of desmoglein1 (DSG1) gene in UVB-irradiated NHEKs, Taqman real-time PCR. The format is cell-based, human. The conditions noted are these: UVB 25 mJ/cm^2, 10 nM sample, 4th day of culture, FIG. 6. As to the method: In order to confirm the effect of strengthening the skin barrier of each of Examples and Comparative Example of the present invention, an expression level of DSG1 gene as an intercellular binding factor was confirmed.
Specifically, normal human epidermal keratinocytes (NHEKs) were cultured in a 6-well plate incubator. After 24 hours, the keratinocyes were washed with phosphate-buffered saline (PBS), irradiation with UVB (25 mJ/cm^2) was performed, a 10 nM sample of each of Examples and Comparative Example was added to the NHEK culture medium, and then, culture was performed. The cells were harvested on the 4th day of culture, RNA was separated, cDNA was synthesized by a reverse transcriptional polymerase chain reaction (RT-PCR), Taqman real-time PCR was performed using the synthesized cDNA, and then, the expression level of the DSG1 gene as a keratinocyte differentiation marker was measured.

The subject of experiment [1] is LL-37 (cathelicidin-related antimicrobial peptide (CAMP)). As to the kind of experiment: Expression of antimicrobial peptide LL-37 in human epidermal keratinocytes, real-time PCR. The format is cell-based. The conditions noted are these: NHEKs, 1% sample (in H2O), 24 hours, gene level, FIG. 1. As to the method:
(§1) In order to confirm the effect of enhancing the skin immunity and defense of each of Examples and Comparative Example of the present invention, the activities of peptide LL-37 (cathelicidin-related antimicrobial peptide (CAMP)), human β-defensin-2 (hBD-2), and human β-defensin-3 (hBD-3) having antimicrobial efficacy were confirmed.
(§2) In order for the confirmation, human epidermal keratinocytes (NHEKs) were dispensed into a 96-well plate, and the cells were cultured under cell culture conditions for 24 hours. Thereafter, the cells were treated with a control, DMSO, and a 1% sample (in H2O) of each of Examples and Comparative Example, and the cells were additionally cultured for 24 hours. A real-time PCR method was performed to determine LL-37, BD-2, and BD-3 at a gene-level. The test procedure is as follows.
(§3) SuperPrep™ cell lysis and RT Kit for qPCR (TOYOBO, SCQ-101) were used for RNA isolation and cDNA synthesis. The cells from which the medium was removed were washed once with phosphate-buffered saline (PBS), 50 μl of a cell lysis mixture (including gDNA remover) was added and reacted for 5 minutes, and then, a stop solution was added. […] QuantiTect primer assays of Qiagen were used in the experiment as a primer, and the expression levels of LL-37, BD-2, and BD-3 in the samples were quantified as GADPH and compared with each other. […]

Experiment [2] concerns human β-defensin-2 (hBD-2). The experiment in a line: Expression of antimicrobial peptide BD-2 in human epidermal keratinocytes, real-time PCR. The conditions noted are these: NHEKs, 1% sample (in H2O), 24 hours, gene level, FIG. 2. It is filed as cell-based. As to the method:
as §1, §2, §3

The subject of experiment [3] is human β-defensin-3 (hBD-3). The experiment in a line: Expression of antimicrobial peptide BD-3 in human epidermal keratinocytes, real-time PCR. The note with it: NHEKs, 1% sample (in H2O), 24 hours, gene level, FIG. 3. It is filed as cell-based. As to the method: as §1, §2, §3

With `CCCCCCCCCC(=O)NC(CO)C(=O)OC` (stereo not shown) [Example 2, N-(1-oxodecyl)serine methyl ester], the “expression level of filaggrin, increase relative to the expression level in the control” value with filaggrin is recorded as no less than 3.8 times. Also, the “expression level of desmoglein1, increase relative to the expression level in the UVB treatment group” value in the experiment on desmoglein1 (DSG1) gene is listed as no less than 4.5 times.

Take `CCCCCC(=O)N[C@@H](Cc1ccc(O)cc1)C(=O)OC` [Comparative Example 1, Defensamide]: the “expression level of antimicrobial peptide LL-37 relative to that in Example 2” value in experiment [1] is reported as 40%. Besides, in experiment [2], the “expression level of antimicrobial peptide BD-2 relative to that in Example 2” value worked out at 33%. In addition, the “expression level of antimicrobial peptide BD-3 relative to that in Example 2” value in experiment [3] was determined as 40%.

As for `CCCCCCCCCC(=O)NC(CO)C(=O)OCC` (stereo not shown) [Example 1, N-(1-oxodecyl)serine ethyl ester], the “expression level of filaggrin, increase relative to the expression level in the control” value in the experiment with filaggrin was no less than 4.3 times. Further, the “expression level of desmoglein1, increase relative to the expression level in the UVB treatment group” value in the experiment on desmoglein1 (DSG1) gene is no less than 4.1 times.
